Test results taken from PMC3715890, “A Cyclic Peptide Inhibitor of HIF-1 Heterodimerization That Inhibits Hypoxia Signaling in Cancer Cells” (Journal of the American Chemical Society, 2013).
“Also recorded” adds a separate entry of the source.

Tests used:
[1] = test system: VEGF protein in hypoxic U2OS cells; assay: VEGF protein ELISA, U2OS; assay type: cell-based, human; details: hypoxia, 100 μM
Procedure: Cells were treated with the stated concentrations of inhibitor (P1, P2, or P3) and incubated in normoxia for 4 h, followed by incubation in a hypoxic environment. All manipulation of cell pellets (e.g., lysis, mRNA, and protein extraction) was conducted in a hypoxic environment. […]
manufacturer’s instructions.
The loaded beads were washed and blocked with the provide buffers. […]
reagent (RPN2232, GE Healthcare).
Fluorescent binding assay
Scientific, catalogue no. […]
followed by washing with 3 × 200 µL ELISA buffer. 95 µL of EMSA buffer was added to […]
The fluorescence of each well at
Isothermal Titration Calorimetry […]
iTC200 system (GE Healthcare).
P2) was dissolved in the same buffer.
Control experiments for P1 or P2
Quantification of VGEF-A protein by ELISA […]
incubation in hypoxia for 16h. VEGF-A protein concentration was quantified by human

[2] = molecular target: T1, His-HIF-1α1–350 with GST-HIF-1β1–474 (Homo sapiens, UniProt Q16665); assay: ELISA of HIF-1 dimerization; assay type: biochemical; details: pH 7.5, 30 min preincubation, room temperature
T1 construct: heterodimerization of His-HIF-1α1–350 with GST-HIF-1β1–474 analyzed by ELISA; made in house; host or cells: E. coli BL21(DE3)
Description: We next probed the effect of cyclo-CLLFVY on the interaction of HIF-1α with HIF-1β in vitro. […] Unfortunately, the positively charged Tat-tag of P1 is incompatible with EMSA (interferes with the bandshift of DNA). […] To determine the HIF-1-specificity of cyclo-CLLFVY, we assessed its ability to disrupt HIF-2 dimerization by ELISA. Recombinant His-HIF-2α1–351 was produced and purified, and shown to form functional heterodimers with GST-HIF-1β1–474 by EMSA (Figure S5B).
HIF-1β1-474, *please note that isoform 3 of HIF-1β was used). The standard protocol for protein expression was followed. Briefly, a 1 % culture in LB was incubated at 37 °C with shaking until OD600 of 0.6 was reached. 0.1 mM IPTG was added and the liquid culture incubated with shaking at 18 °C overnight. Cell pellets were suspended in MHW buffer9 (approximately 4 ml buffer per 1 g cell pellet). Lysozyme (100 µg/ml) was added to the lysate and the solution was incubated with shaking for 20 min at 5 °C. […]
glycerol) was added to individual wells of a Pierce Ni2+-coated 96-well plate (Thermo Scientific, catalogue no. […] The stated quantity of inhibitor (P1 or P2) was added as a solution in 100 µL of buffer to the desired wells, and the plate incubated at room temperature for 30 minutes. […]

“Tat-cyclo-CRLMVL (head to tail) [P2, cyclo-CRLMVL tagged with Tat peptide via a disulfide bond; used as negative control]” was tested, and the VEGF protein level [1] was “has no effect in either cell line” and the “effect on HIF-1 dimerization” value [2] was “does not disrupt HIF-1 dimerization; also recorded: had no effect on HIF-1 dimerization”.
